The source made the active and inactive calls. No cut-off for these calls is given here.

For test [1], the system named is Pseudomonas aeruginosa. In words: Antibacterial activity against Pseudomonas aeruginosa PDO300 assessed as persister cell death in viable biofilm at 5 to 30 ug/mL after 24 hrs by drop plate method. It counts as functional, organism-based.
Test [2] concerns Pseudomonas aeruginosa. In words: Antibacterial activity against Pseudomonas aeruginosa PDO300 assessed as viable persister cells at 30 ug/ml after 24 hrs by drop plate method. It counts as functional, organism-based.
The test system of test [3] is Pseudomonas aeruginosa. In words: Antibacterial activity against Pseudomonas aeruginosa PDO300 assessed as reduction in viable persister cells in planktonic population of biofilm at 60 ug/ml after 18 hrs by drop plate method relative to control. It counts as functional.
Test [4] relates to Pseudomonas aeruginosa. In words: Antibacterial activity against Pseudomonas aeruginosa PDO300 assessed as reduction in persistence up to 30 ug/ml after 5 hrs by drop plate method. It counts as functional, organism-based.
The subject of test [5] is Pseudomonas aeruginosa. In words: Antibacterial activity against Pseudomonas aeruginosa PDO300 assessed as cell viability up to 30 ug/ml after 5 hrs by drop plate method. It counts as functional, organism-based.
In test [6] the test system is Pseudomonas aeruginosa. In words: Antibacterial activity against Pseudomonas aeruginosa PDO300 assessed as reduction in biofilm formation after 18 hrs by drop plate method. It counts as functional, organism-based.
The subject of test [7] is Pseudomonas aeruginosa. The experiment in a line: Antibacterial activity against Pseudomonas aeruginosa PDO300 assessed as reduction in biofilm formation at 60 ug/ml after 18 hrs by drop plate method relative to control. It counts as functional. On the set-up: scale not given: the % may be the effect or the level left.
Test [8] relates to Pseudomonas aeruginosa. In words: Antibacterial activity against Pseudomonas aeruginosa PDO300 assessed as growth inhibition at 5 to 30 ug/mL after 12 hrs. It counts as functional, organism-based.
Test [9] has as its system Pseudomonas aeruginosa. The experiment in a line: Antibacterial activity against Pseudomonas aeruginosa PDO300 assessed as reduction in persistence after 12 hrs by drop plate method. It counts as functional, organism-based.
The test system of test [10] is Pseudomonas aeruginosa. The experiment in a line: Antibacterial activity against Pseudomonas aeruginosa PDO300 assessed as reduction in viable persister cells in biofilm at 20 to 60 ug/ml after 18 hrs by drop plate method relative to control. It counts as functional.
The subject of test [11] is Pseudomonas aeruginosa. In words: Bactericidal activity against Pseudomonas aeruginosa PDO300 persister cells at 5 ug/ml after 2 hrs by drop plate method. It counts as functional.
Test [12] has as its system Pseudomonas aeruginosa. In words: Antibacterial activity against Pseudomonas aeruginosa PDO300 assessed as reduction in viable persister cells in planktonic population of biofilm after 18 hrs by drop plate method. It counts as functional, organism-based.
For test [13], the system named is Pseudomonas aeruginosa. The experiment in a line: Bactericidal activity against Pseudomonas aeruginosa PDO300 persister cells at 5 to 50 ug/ml after 2 hrs by drop plate method. It counts as functional, organism-based.
Test [14] concerns Pseudomonas aeruginosa. In words: Antibacterial activity against Pseudomonas aeruginosa PDO300 assessed as reduction in viable biofilm cells after 24 hrs by drop plate method. It counts as functional, organism-based.
The subject of test [15] is Pseudomonas aeruginosa. The experiment in a line: Antibacterial activity against Pseudomonas aeruginosa PDO300 assessed as reduction in planktonic cells in biofilm after 18 hrs by drop plate method. It counts as functional, organism-based.
In test [16] the test system is Pseudomonas aeruginosa. The experiment in a line: Antibacterial activity against Pseudomonas aeruginosa PDO300 assessed as reduction in persistence at 30 ug/ml after 12 hrs by drop plate method relative to control. On the set-up: scale not given: the % may be the effect or the level left. It counts as functional.
In test [17] the test system is Pseudomonas aeruginosa. The experiment in a line: Antibacterial activity against Pseudomonas aeruginosa PDO300 assessed as effect on total number of suspended planktonic cells at 60 ug/ml after 18 hrs by drop plate method relative to control. It counts as functional, organism-based.
Test [18] deals with Pseudomonas aeruginosa. The experiment in a line: Bactericidal activity against Pseudomonas aeruginosa PDO300 persister cells at 50 ug/ml after 2 hrs by drop plate method. It counts as functional, organism-based.
Test [19] concerns Pseudomonas aeruginosa. In words: Antibacterial activity against Pseudomonas aeruginosa PDO300 assessed as viable biofilm cells at 30 ug/ml after 24 hrs by drop plate method (reference value: 0.0005 +/- 0.0008%). It counts as functional.
The subject of another test is Escherichia coli. The experiment in a line: Antibacterial activity against Escherichia coli RP437 assessed as effect on persister cells at pH > 7. It counts as functional, organism-based.
Test [20] concerns Pseudomonas aeruginosa. The experiment in a line: Antibacterial activity against Pseudomonas aeruginosa PDO300 assessed as reduction in persister cells in biofilm after 18 hrs by drop plate method. It counts as functional, organism-based.
Test [21] relates to Pseudomonas aeruginosa. The experiment in a line: Antibacterial activity against Pseudomonas aeruginosa PDO300 assessed as cell death in planktonic phase at 30 ug/ml after 24 hrs by drop plate method. It counts as functional, organism-based.

As to `CC1=C(Br)/C(=C/Br)OC1=O`, the result in the test with Pseudomonas aeruginosa [1], with Pseudomonas aeruginosa [2], in the test with Pseudomonas aeruginosa [13], in the test with Pseudomonas aeruginosa [18], with Escherichia coli and in the test with Pseudomonas aeruginosa [21] was Active. Besides, the Activity is 96.5% in the test on Pseudomonas aeruginosa [3]; “Dose-dependent effect” in the test on Pseudomonas aeruginosa [6]; 91.6% in the test on Pseudomonas aeruginosa [7]; “Dose-dependent effect” in the test with Pseudomonas aeruginosa [9]; 98.3% in the test on Pseudomonas aeruginosa [10]; 80.9% with Pseudomonas aeruginosa [11]. Also, the Activity result with Pseudomonas aeruginosa [12] is “Dose-dependent effect”; in the test on Pseudomonas aeruginosa [14], “Dose-dependent effect”; in the test on Pseudomonas aeruginosa [16], 88.5%; in the test on Pseudomonas aeruginosa [19], 0.01%; in the test on Pseudomonas aeruginosa [20], “Dose-dependent effect”. Also, the outcome in the test with Pseudomonas aeruginosa [4], in the test with Pseudomonas aeruginosa [5], with Pseudomonas aeruginosa [15] and in the test on Pseudomonas aeruginosa [17] was inactive. In the test with Pseudomonas aeruginosa [8], the “growth inhibition (GI)” value is “inactive”.

The values above are taken from ChEMBL document CHEMBL2406918, “Controlling persister cells of Pseudomonas aeruginosa PDO300 by (Z)-4-bromo-5-(bromomethylene)-3-methylfuran-2(5H)-one” (2013).
